Measurements from patent US6458781B1, “Substituted diarylalkyl amides as calcium channel antagonists” (priority 1998, dated 2002).
Counter-ions that a name gives are not always drawn. Like-named read-outs stand apart in the source and are kept apart here.

Assays:
[1] = biological target: T1, N-type calcium channels in IMR-32 cells (Homo sapiens, UniProt Q00975); assay: N-type Ca2+ channel blocking potency in IMR-32 cells using Indo-1; assay type: cell-based; details: for IC50: IMR-32 cells
T1 construct: host or cells: IMR-32 cells differentiated with dibutyryl cAMP and bromodeoxyuridine
How it was run: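 Differentiated IMR-32 cells loaded with Indo-1 AM were preincubated with compound and 5 μM nitrendipine (L-type block) for 10 min at 30° C in HEPES/Tris pH 7.4 HBSS with 0.5% BSA. Cells were depolarized with KCl/CaCl2, and the 400/490 nm emission ratio rise over basal was measured. IC50 came from a four-parameter logistic fit.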

[2] = test system: sound-induced tonic convulsions in DBA/2 mice; assay: Audiogenic seizure model in DBA/2 mice; assay type: in vivo; details: Mus musculus, protected/tested, read-out: Number of Mice Protected From Tonic Convulsions (converted); for responders at 30 mg/kg: 30 mg/Kg IV; for responders at 3 mg/kg: 3 mg/Kg IV; for responders at 10 mg/kg: 10 mg/Kg IV
Protocol: Audiogenic Seizure Model in DBA/2 Mice
A compound of the present invention was dissolved in water using 10% (weight/volume) Emulphor (GAF Corp., Wayne, N.J.) surfactant. Substances were administered by intravenous injection into the retro-orbital venous sinus of male mice (3-4 weeks old, Jackson Laboratories, Bar Harbour, Me.). All testing was preformed 15 minutes or 45 minutes after drug injection. Immediately before anticonvulsant testing, mice were placed upon a wire mesh, 4 inches square suspended from a steel rod. The square was slowly inverted through 180 degrees and mice observed for 30 seconds. Any mouse falling from the wire mesh was scored as ataxic.
Mice were placed into an enclosed acrylic plastic chamber (21 cm height, approximately 30 cm diameter) with a high-frequency speaker (4 cm diameter) in the center of the top lid. An audio signal generator (Protek model B-810) was used to produce a continuous sinusoidal tone that Was swept linearly in frequency between 8 kHz and 16 kHz once each 10 msec. The average sound pressure level (SPL) during stimulation was approximately 100 dB at the floor of the chamber. Mice were placed within the chamber and allowed to acclimatize for 1 minute. DBA/2 mice in the vehicle-treated group responded to the sound stimulus (applied until tonic extension occurred, or for a maximum of 60 sec) with a characteristic seizure sequence consisting of wild running followed by clonic seizures, and later by tonic extension, and finally by respiratory arrest and death in 80% or more of the mice. In vehicle-treated mice, the entire sequence of seizures to respiratory arrest lasts approximately 15-20 seconds.
The incidence of all the seizure phases in the drug-treated and vehicle-treated mice was recorded, and the occurrence of tonic seizures were used for calculating anticonvulsant ED50 values by probit analysis. Mice were used only once for testing at each time and dose point.

[3] = test system: electroshock-induced tonic extensor seizures in CF-1 mice; assay: Maximal electroshock testing; assay type: in vivo; details: protected/tested
Protocol: Maximal Electroshock Testing
In this test, four representative compounds were tested for their anticonvulsant effects using the procedure described below.
Male CF-1 mice, 20 to 28 g, from Charles River Laboratories, Portage, Mich. were used in all experiments. Groups of 10 mice each were given various intravenous doses of test compound in aqueous solution with 10% Emulphan® Surfactant in a volume of 10 mL/kg of body weight. Electroshock was delivered by corneal electrodes with 60 Hz alternating current (50 mA root-mean-squared for 0.2 seconds) using a constant-current stimulator (Wahlquist Instruments, Salt Lake City, Utah). Untreated or saline-treated mice reliably had tonic extensor seizures with rearward extension of hindlimbs more than 3 seconds. These methods are similar to those published by Krall R. L.; Penry J. K.; White B. G.; and Kupferberg H. K. Antiepileptic Drug Development II. Anticonvulsant Drug Screening, Epilepsia, 1978; 19:409-428.

[4] = estimated from two data points, read-out: IMR32 IC50 (estimated IC50 values based on two data points)
[5] = 5 μM nitrendipine present, read-out: IMR32 IC50
[6] = 10 mg/Kg iv, 15 min posttreatment
[7] = 30 mg/Kg iv, 15 min posttreatment

T1 sequence (Q00975 whole entry): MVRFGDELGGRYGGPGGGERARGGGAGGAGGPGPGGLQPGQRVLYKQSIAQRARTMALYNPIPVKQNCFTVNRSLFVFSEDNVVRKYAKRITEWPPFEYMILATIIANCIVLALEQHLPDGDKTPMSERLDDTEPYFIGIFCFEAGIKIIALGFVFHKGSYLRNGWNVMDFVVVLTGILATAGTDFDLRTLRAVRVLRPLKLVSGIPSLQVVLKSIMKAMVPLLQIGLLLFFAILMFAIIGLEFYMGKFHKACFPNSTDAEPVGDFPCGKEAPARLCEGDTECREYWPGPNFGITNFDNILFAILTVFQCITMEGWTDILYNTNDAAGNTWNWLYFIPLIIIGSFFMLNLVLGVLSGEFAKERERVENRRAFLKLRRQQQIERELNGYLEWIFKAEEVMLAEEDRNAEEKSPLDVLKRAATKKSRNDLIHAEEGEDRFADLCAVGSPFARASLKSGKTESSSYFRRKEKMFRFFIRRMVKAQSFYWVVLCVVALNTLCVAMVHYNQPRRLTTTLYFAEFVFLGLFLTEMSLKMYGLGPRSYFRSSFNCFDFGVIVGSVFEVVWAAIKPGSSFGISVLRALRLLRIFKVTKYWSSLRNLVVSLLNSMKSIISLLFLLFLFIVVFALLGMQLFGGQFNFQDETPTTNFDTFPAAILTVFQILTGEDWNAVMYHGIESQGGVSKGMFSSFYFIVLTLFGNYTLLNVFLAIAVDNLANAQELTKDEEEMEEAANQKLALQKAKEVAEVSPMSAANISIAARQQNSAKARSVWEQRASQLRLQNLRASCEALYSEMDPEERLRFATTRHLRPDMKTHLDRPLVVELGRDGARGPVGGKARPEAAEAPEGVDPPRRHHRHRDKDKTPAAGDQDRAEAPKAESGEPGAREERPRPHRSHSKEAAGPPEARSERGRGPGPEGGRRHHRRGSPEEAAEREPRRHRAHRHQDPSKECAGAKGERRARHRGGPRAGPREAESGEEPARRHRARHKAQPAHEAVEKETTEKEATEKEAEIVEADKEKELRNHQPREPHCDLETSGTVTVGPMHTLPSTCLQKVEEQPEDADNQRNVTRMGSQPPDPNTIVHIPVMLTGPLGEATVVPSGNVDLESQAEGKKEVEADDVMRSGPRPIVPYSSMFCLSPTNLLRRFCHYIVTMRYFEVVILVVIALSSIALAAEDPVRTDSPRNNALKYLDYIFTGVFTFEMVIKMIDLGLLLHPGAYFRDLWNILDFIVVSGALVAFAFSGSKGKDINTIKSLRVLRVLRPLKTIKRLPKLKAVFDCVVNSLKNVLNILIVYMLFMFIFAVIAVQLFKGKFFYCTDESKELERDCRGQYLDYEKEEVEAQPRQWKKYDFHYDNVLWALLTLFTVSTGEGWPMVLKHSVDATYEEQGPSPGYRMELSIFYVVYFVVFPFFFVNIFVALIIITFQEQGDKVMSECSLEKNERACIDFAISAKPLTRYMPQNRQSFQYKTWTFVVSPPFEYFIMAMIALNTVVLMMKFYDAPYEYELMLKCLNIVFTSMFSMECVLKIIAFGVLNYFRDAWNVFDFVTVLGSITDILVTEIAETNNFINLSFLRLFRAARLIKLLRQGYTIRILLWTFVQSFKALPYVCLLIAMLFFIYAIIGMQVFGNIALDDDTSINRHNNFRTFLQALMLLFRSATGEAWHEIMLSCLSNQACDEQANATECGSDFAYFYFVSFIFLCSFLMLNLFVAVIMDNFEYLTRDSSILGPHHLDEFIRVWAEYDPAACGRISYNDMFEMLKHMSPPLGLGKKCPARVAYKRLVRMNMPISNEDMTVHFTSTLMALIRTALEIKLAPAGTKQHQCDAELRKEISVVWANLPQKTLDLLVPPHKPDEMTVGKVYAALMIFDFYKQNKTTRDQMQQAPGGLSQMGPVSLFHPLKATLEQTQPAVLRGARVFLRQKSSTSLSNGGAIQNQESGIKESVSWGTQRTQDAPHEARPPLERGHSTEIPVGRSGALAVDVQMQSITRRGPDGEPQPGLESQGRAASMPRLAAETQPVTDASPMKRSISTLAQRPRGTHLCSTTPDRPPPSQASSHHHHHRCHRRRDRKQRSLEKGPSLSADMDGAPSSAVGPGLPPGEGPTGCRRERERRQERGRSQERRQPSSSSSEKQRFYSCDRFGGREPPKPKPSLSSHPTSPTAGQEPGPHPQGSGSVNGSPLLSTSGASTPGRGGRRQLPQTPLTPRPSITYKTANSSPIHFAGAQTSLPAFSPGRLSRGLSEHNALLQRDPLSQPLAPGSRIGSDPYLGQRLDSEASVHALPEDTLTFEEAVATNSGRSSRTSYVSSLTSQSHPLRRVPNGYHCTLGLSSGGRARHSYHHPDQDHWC
T1 sequence (P54289 25-956 partner limits assumed): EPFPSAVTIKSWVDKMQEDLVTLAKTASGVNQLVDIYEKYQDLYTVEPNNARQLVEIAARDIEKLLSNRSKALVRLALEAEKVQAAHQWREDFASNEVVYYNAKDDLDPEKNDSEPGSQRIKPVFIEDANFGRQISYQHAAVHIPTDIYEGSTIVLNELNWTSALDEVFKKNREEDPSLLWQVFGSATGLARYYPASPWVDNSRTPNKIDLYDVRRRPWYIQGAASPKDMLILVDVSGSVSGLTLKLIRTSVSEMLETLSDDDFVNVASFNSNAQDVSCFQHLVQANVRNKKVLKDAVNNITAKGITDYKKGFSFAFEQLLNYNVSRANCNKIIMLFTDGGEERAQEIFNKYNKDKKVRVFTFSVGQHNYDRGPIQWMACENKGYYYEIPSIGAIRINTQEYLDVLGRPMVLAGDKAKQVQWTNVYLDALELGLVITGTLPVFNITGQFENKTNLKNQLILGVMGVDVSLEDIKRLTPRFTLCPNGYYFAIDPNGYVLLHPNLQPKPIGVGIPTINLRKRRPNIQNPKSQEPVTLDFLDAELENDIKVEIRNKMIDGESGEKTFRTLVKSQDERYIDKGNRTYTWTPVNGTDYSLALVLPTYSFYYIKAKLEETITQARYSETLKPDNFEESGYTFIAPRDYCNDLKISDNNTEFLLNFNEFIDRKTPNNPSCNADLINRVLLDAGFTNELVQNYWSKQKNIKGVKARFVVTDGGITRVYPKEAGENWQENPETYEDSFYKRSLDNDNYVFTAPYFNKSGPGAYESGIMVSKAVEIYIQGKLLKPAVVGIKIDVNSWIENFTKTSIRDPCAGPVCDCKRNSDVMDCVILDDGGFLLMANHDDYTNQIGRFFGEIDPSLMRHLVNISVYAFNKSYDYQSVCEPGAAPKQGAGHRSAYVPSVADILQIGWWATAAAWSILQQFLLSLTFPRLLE
T1 sequence (P54289 957-1103 partner limits assumed): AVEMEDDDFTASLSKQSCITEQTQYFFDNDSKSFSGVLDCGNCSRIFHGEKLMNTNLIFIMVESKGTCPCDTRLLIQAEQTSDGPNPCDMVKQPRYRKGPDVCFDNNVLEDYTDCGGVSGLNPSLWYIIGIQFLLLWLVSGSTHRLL
T1 sequence (Q02641 whole entry partner): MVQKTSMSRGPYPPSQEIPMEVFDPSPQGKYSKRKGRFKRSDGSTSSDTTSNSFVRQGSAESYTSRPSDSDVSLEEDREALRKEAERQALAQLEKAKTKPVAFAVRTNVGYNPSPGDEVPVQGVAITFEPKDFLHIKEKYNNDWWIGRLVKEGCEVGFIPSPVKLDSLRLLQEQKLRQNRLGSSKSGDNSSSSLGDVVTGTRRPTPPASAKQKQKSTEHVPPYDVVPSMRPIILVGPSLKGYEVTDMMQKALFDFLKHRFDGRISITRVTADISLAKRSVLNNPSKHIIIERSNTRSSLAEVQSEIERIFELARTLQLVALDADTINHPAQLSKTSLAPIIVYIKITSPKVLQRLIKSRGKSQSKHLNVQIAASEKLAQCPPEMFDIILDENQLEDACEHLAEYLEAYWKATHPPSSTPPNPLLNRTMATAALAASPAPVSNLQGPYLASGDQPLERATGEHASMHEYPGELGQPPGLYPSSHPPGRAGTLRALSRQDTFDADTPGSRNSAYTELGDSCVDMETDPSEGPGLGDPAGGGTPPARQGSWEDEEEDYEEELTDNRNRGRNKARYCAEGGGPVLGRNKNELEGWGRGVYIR

Row | SMILES | IC50 [1, 5] | responders at 30 mg/kg ([2]; 0.25 h, 15 min posttreatment) | responders at 30 mg/kg ([2]; 0.75 h, 45 min posttreatment) | other results
1 | CC(C)C[C@@H](C(=O)N1CCN(C(c2ccc(F)cc2)c2ccc(F)cc2)CC1)N(C)C [Example 39, (S)-1-{4-[Bis-(4-fluoro-phenyl)-methyl]-piperazin-1-yl}-2-dimethylamino-4-methyl-pentan-1-one dihydrochloride] | – | – | – | IC50 [1, 4]: 3500 nM
2 | CC(C)C[C@H](NC(=O)N1CCCCCC1)C(=O)N1CCN(C(c2ccc(F)cc2)c2ccc(F)cc2)CC1 [Example 31, (S)-Azepane-1-carboxylic acid (1-{4-[bis-(4-fluoro-phenyl)-methyl]-piperazine-1-carbonyl}-3-methyl-butyl)-amide] | 480 nM | 0% | 0% | –
3 | CC(C)CCN(C)[C@@H](CC(C)C)C(=O)NCCCC(c1ccc(F)cc1)c1ccc(F)cc1 [Example 28, (S)-4-Methyl-2-[methyl-(3-methyl-butyl)-amino]-pentanoic acid [4,4-bis-(4-fluoro-phenyl)-butyl]-amide monohydrochloride] | – | 80% | 100% | inhibition at 1 µM ([1]; IMR-32, IMR-32 cells, at 1 μM, read-out: IMR32 % blockage at 1 μM): 92%; inhibition at 10 µM ([1]; IMR-32, IMR-32 cells, at 10 μM, read-out: IMR32 % blockage at 10 μM): 97%
4 | CC(C)C[C@H](N)C(=O)NCCCC(c1ccc(F)cc1)c1ccc(F)cc1 [Example 7, (S)-2-Amino-4-methyl-pentanoic acid [4,4-bis-(4-fluoro-phenyl)-butyl]-amide monohydrochloride] | 2400 nM | 80% | 80% | –
5 | CC(C)[C@H](NC(=O)N1CCCCCC1)C(=O)N1CCN(C(c2ccc(F)cc2)c2ccc(F)cc2)CC1 [Example 33, (S)-Azepane-1-carboxylic acid (1-{4-[bis-(4-fluoro-phenyl)-methyl]-piperazine-1-carbonyl}-2-methyl-propyl)-amide] | 850 nM | 0% | 0% | –
6 | CC(C)C[C@@H](CN1CCN(C(c2ccc(F)cc2)c2ccc(F)cc2)CC1)NC(=O)N1CCCCCC1 [Example 36, (S)-Azepane-1-carboxylic acid (1-{4-[bis-(4-fluoro-phenyl)-methyl]-piperazin-1-ylmethyl}-3-methyl-butyl)-amide] | – | – | – | IC50 [1, 4]: 500 nM
7 | CN[C@@H](CC(C)C)C(=O)NCCCC(c1ccc(F)cc1)c1ccc(F)cc1 [Example 12, (S)-4-Methyl-2-methylamino-pentanoic acid [4,4-bis-(4-fluoro-phenyl)-butyl]-amide monohydrochloride] | 1430 nM | 100% | 80% | –
8 | CC(C)C[C@H](NCC1CCCCC1)C(=O)NCCCC(c1ccc(F)cc1)c1ccc(F)cc1 [Example 8, (S)-2-(Cyclohexylmethyl-amino)-4-methyl-pentanoic acid [4,4-bis-(4-fluoro-phenyl)-butyl]-amide monohydrochloride] | 460 nM | 100% | 100% | Number of Mice Protected from Tonic Convulsions [3, 6]: 0/4; Number of Mice Protected from Tonic Convulsions ([3]; 10 mg/Kg iv, 45 min posttreatment): 0/5; Number of Mice Protected from Tonic Convulsions [3, 7]: 4/4; Number of Mice Protected from Tonic Convulsions ([3]; 30 mg/Kg iv, 45 min posttreatment): 2/2; responders at 3 mg/kg ([2]; 0.25 h, 15 min posttreatment): 0%; responders at 10 mg/kg ([2]; 0.25 h, 15 min posttreatment): 80%; responders at 3 mg/kg ([2]; 0.75 h, 45 min posttreatment): 0%; responders at 10 mg/kg ([2]; 0.75 h, 45 min posttreatment): 40%
9 | CC(C)C[C@@H](C(=O)NCCCC(c1ccc(F)cc1)c1ccc(F)cc1)N(C)Cc1ccc(C(C)(C)C)cc1.Cl [Example 14, (S)-2-[(4-tert-Butyl-benzyl)-methyl-amino]-4-methyl-pentanoic acid [4,4-bis-(4-fluoro-phenyl)-butyl]-amide monohydrochloride] | 840 nM | – | – | melting point: 87 to 95 °C
10 | CC(C)=CCN[C@@H](CC(C)C)C(=O)NCCCC(c1ccc(F)cc1)c1ccc(F)cc1 [Example 9, (S)-4-Methyl-2-(3-methyl-but-2-enylamino)-pentanoic acid [4,4-bis-(4-fluoro-phenyl)-butyl]-amide monohydrochloride] | 280 nM | 100% | 100% | Number of Mice Protected from Tonic Convulsions [3, 6]: 10/10; Number of Mice Protected from Tonic Convulsions [3, 7]: 10/10; responders at 3 mg/kg ([2]; 0.25 h, 15 min posttreatment): 60%; responders at 10 mg/kg ([2]; 0.25 h, 15 min posttreatment): 100%; responders at 3 mg/kg ([2]; 0.75 h, 45 min posttreatment): 0%; responders at 10 mg/kg ([2]; 0.75 h, 45 min posttreatment): 60%
